The text below walks through data of patent US20210038559A1, “CANNABINOIDS AND DERIVATIVES FOR PROMOTING IMMUNOGENICITY OF TUMOR AND INFECTED CELLS” (priority 2018, published 2021).

Like-named read-outs stand apart in the source and are kept apart here.

The EC50 is the midpoint of the concentration-response curve. A word on the fold induction: it is the ratio of treated to control signal.

Series [1] concerns MHC-I expression on COLO 205 cells. Put plainly: Phytocannabinoid MHC-I induction on COLO 205 cells, 0-100 μM, 48 hours. As to conditions: for Fold Induction: MHC-I expression on COLO 205 cells, relative to control cells treated only with buffer; for MHC-I expression induction: COLO 205, endogenous cannabinoids. Here is the method: FIG. 4. Cell surface MHC class I expression was measured by flow cytometry (MFI).
Phytocannabinoids were tested for MHC-I-inducing activity on COLO 205 cells. Each cannabinoid was tested at a concentration range of 0-100 μM. […] “ND” indicates not determined.

Series [2] relates to MHC class I expression on COLO 205 cells. Kind of series: MHC class I expression on COLO 205 cells, 24 hours, flow cytometry (W6/32). As to conditions: for MFI: W6/32 staining; for fold induction at 10 µM / fold induction at 20 µM / fold induction at 30 µM / fold induction at 40 µM: Homo sapiens, COLO 205. As to the method: FIG. 2A-2F. […] Cells were treated for 24 hours and cell surface MHC class I expression was measured by flow cytometry.
Cannabigerol was also tested for its capacity to induce MHC class I expression in a human colorectal carcinoma cell line, COLO 205. The cells were treated with either 25 μM or 50 μM cannabigerol for 24 hours. Fluorophor (Alexa Fluor 488)-conjugated W6/32 antibody (Thermo Fisher) was used in a flow cytometry assay to quantitate MHC class I expression. […] Cannabigerol is only one of many cannabinoid-like molecules with potential biopharmaceutical activity. […] COLO 205 cells were treated with up to 40 μM of the cannabinoids 1-5 presented in Tables 1 and 2 and evaluated for cell surface MHC class I expression as described above for cannabigerol.
In general terms: Flow cytometry measures light scatter and fluorescence of single cells or particles in a stream.

The subject of series [3] is MHC-I expression, COLO 205 cells. Put plainly: Time course of MHC-I expression in CBD-treated COLO 205 cells. It counts as cell-based, human. As to conditions: COLO 205, 15 μM. Here is the method:
FIG. 5. MHC-I expression (MFI) is induced over time in CBD-treated COLO 205 cells.
To determine whether changes in gene expression play a role in cannabinoid-induced MHC-I expression, COLO 205 cells were incubated with 15 μM CBD and cells were harvested at 6, 12, 24, and 48 hours for determination of MHC-I expression by flow cytometry.

For series [4], the system named is MHC class I expression, mouse Lewis lung carcinoma cell line A9. Put plainly: MHC class I expression in mouse A9 Lewis lung carcinoma cells, 24 hours, flow cytometry. Type of series: cell-based. As to conditions: 100 ng/ml, positive control. As to the method: FIG. 1A-1B. Cannabigerol stimulates MHC class I expression in the mouse A9 Lewis lung carcinoma (FIG. 1A) and the human COLO 205 colorectal carcinoma (FIG. 1B) cell lines. Cells were treated for 24 hours with 21.2 μM (A) or 25 and 50 μM (FIG. 1B) cannabigerol.
Cannabigerol, a representative cannabinoid, was tested for its ability to also stimulate MHC class I expression in mammalian cancer cell lines. The mouse Lewis lung carcinoma cell line, A9, was treated with 21 μM of cannabigerol for 24 hours prior to flow cytometric analysis of cell surface expression of MHC class I expression levels using the MHC class I antibody W6/32 (Thermo Fisher). Control conditions included the vehicle, dimethyl sulfoxide (DMSO, 1%) alone, and 100 ng/ml of trichostatin A (TSA), a histone deacetylase inhibitor and known inducer of MHC class I expression in mammalian cells. […] The positive control, TSA, stimulated expression by 2.4-fold.

[5] abbreviates: induction of MHC-I expression on COLO 205 cells, 0-100 μM, 48 hours.

Molecule `CC(C)=CCC/C(C)=C/Cc1c(O)cc(C)cc1O` [Example 388, 2-[(2E)-3,7-dimethyl-2,6-octadien-1-yl]-5-methyl-1,3-benzenediol] gave a half-maximal effective concentration (EC50) in series [1] (Homo sapiens, COLO 205, 48 h) of 36 µM. Besides, in series [1] (0-100 μM, 48 hours), the “Fold Induction” value was 2.7 Fold.

As to `C=C(C)[C@@H]1CCC(C)=CC1c1c(O)cc(CCCCC)cc1O` (stereo partly drawn) [Example 2, 2-[1R-3-methyl-6R-(1-methylethenyl)-2-cyclohexen-1-yl]-5-pentyl-1,3-benzenediol], the MFI in series [2] (COLO 205, 10 μM) is reported as 141; in series [2] (COLO 205, 20 μM), 205; in series [2] (COLO 205, 30 μM), 199; in series [2] (COLO 205, 40 μM) it was 82. Further, in series [2], the fold induction at 10 µM came out at 1.17. Besides, the fold induction at 20 µM in series [2] was found to be 1.69. Besides, the fold induction at 30 µM in series [2] was 1.64. Besides, in series [2], the fold induction at 40 µM came to 0.68. For the same molecule, the half-maximal effective concentration (EC50) in series [1] (Homo sapiens, COLO 205, 48 h) turned out to be 10 µM. Also, the “Fold Induction” value in series [1] (0-100 μM, 48 hours) is reported as 2.8 Fold. For the same molecule, the MHC-I expression entry is “robust induction” in series [3] (48 hr) and “slight increase” in series [3] (by 24 hours).

On to `CCCc1cc(O)c2c(c1)OC(C)(C)[C@@H]1CCC(C)=C[C@@H]21` [Example 5, 6aR,7,8,10aR-tetrahydro-6,6,9-trimethyl-3-propyl-6H-dibenzo[b,d]pyran-1-ol], for which the MFI in series [2] (COLO 205, 10 μM) was 152. Besides, the MFI in series [2] (COLO 205, 20 μM) turned out to be 192. This molecule also registered an MFI in series [2] (COLO 205, 30 μM) of 235. Besides, the MFI in series [2] (COLO 205, 40 μM) stood at 242. Further, in series [2], the fold induction at 10 µM came out at 1.26, the fold induction at 20 µM was determined as 1.59, the fold induction at 30 µM stood at 1.94 and the fold induction at 40 µM was found to be 2. The molecule further gave an EC50 in series [1] (Homo sapiens, COLO 205, 48 h) of 15 µM. In series [1] (0-100 μM, 48 hours), the “Fold Induction” value was determined as 3.0 Fold.

Consider `C=C(C)[C@@H]1CCC(C)=C[C@H]1c1c(O)cc(CCCCC)cc1O` [cannabidiol (CBD)], for which the EC50 in series [1] (read-out: EC50 of MHC-I induction, COLO 205, 48 hours) came out at 10 µM.

Regarding `CC(C)=CCC/C(C)=C/Cc1c(O)cc(C)c(C(=O)O)c1O` [Example 389, 3-[(2E)-3,7-dimethyl-2,6-octadien-1-yl]-2,4-dihydroxy-6-methyl-benzoic acid], the “Fold Induction” value in series [1] (0-100 μM, 48 hours) turned out to be 2.6 Fold.

In turn, `CCCCCc1cc(O)c2c(c1)OC(C)(CCC=C(C)C)C=C2` (stereo not shown) [Example 3, 2-methyl-2-(4-methyl-3-penten-1-yl)-7-pentyl-2H-1-benzopyran-5-ol] displayed an MFI in series [2] (COLO 205, 10 μM) of 120. In series [2] (COLO 205, 20 μM), this molecule came in with an MFI of 148. Moreover, in series [2] (COLO 205, 30 μM), the MFI was found to be 177. Also, the MFI in series [2] (COLO 205, 40 μM) was found to be 280. For the same molecule, in series [2], the fold induction at 10 µM amounted to 0.99, the fold induction at 20 µM came out at 1.22, the fold induction at 30 µM turned out to be 1.46 and the fold induction at 40 µM amounted to 2.31. In series [1] (Homo sapiens, COLO 205, 48 h), this molecule registered an EC50 of 20 µM. Further, the “Fold Induction” value in series [1] (0-100 μM, 48 hours) was determined as 1.6 Fold.

`CCCCC/C=C\C/C=C\C/C=C\C/C=C\CCCC(=O)NCCO` [AEA, N-arachidonoylethanolamine, reference compound]: in series [1], the “MHC-I expression induction” value is given as “do not induce MHC-I expression”.

In series [1] (Homo sapiens, COLO 205, 48 h), `CCCc1cc(O)c2c(c1)OC(C)(C)c1ccc(C)cc1-2` [Example 385, 6,6,9-trimethyl-3-propyl-6H-dibenzo[b,d]pyran-1-ol] gave an EC50 of 20 µM. The “Fold Induction” value in series [1] (0-100 μM, 48 hours) amounted to 3.9 Fold.

`CCCCCc1cc2c3c(c1)OC(C)(C)C1CCC(C)(CC31)O2` (stereo not drawn) [Example 382, (6aα,9β,10aα)-6a,7,8,9,10,10a-hexahydro-6,6,9-trimethyl-3-pentyl-1,9-epoxy-6H-dibenzo[b,d]pyran]: the “Fold Induction” value in series [1] (0-100 μM, 48 hours) was determined as 1.3 Fold.

With `CC(/C=C/C(=O)NO)=C\[C@@H](C)C(=O)c1ccc(N(C)C)cc1` [TSA, trichostatin A, reference compound], the “increase in MHC class I expression” value in series [4] stood at 2.4 fold.

With `CCCCC/C=C\C/C=C\C/C=C\C/C=C\CCCC(=O)OC(CO)CO` [Example 2-AG, 2-Arachidonoylglycerol, reference compound], the “MHC-I expression induction” value in series [1] is reported as “do not induce MHC-I expression”.

For `CCCCCc1cc(OC)c2c(c1)OC(C)(C)c1ccc(C)cc1-2` [Example 387, 1-methoxy-6,6,9-trimethyl-3-pentyl-6H-dibenzo[b,d]pyran], the EC50 in series [1] (Homo sapiens, COLO 205, 48 h) is 30 µM. Besides, in series [1] (0-100 μM, 48 hours), the “Fold Induction” value stood at 2.3 Fold.

The molecule `CCCCCc1cc(O)c2c(c1)OC1(C)CCC3C1C2C3(C)C` [Example 390, (1aS,1a^1R,3aR,8bR)-1,1,3a-trimethyl-6-pentyl-1a,1a^1,2,3,3a,8b-hexahydro-1H-4-oxabenzo[f]cyclobuta[cd]inden-8-ol] showed an EC50 in series [1] (Homo sapiens, COLO 205, 48 h) of 20 µM. Further, the “Fold Induction” value in series [1] (0-100 μM, 48 hours) is given as 4.2 Fold.

Take `CCCCCc1cc(O)c2c(c1)OC(C)(C)[C@@H]1CCC(C)=C[C@@H]21` [Example 384, 6aR,7,8,10aR-tetrahydro-6,6,9-trimethyl-3-pentyl-6H-dibenzo[b,d]pyran-1-ol]: the “Fold Induction” value in series [1] (0-100 μM, 48 hours) is 6.1 Fold. The same molecule gave an EC50 in series [1] (setting [5]) of 30 µM.

Consider `CCCCCc1cc(O)c2c(c1)OC(C)(C)c1ccc(C)cc1-2` [Example 4, 6,6,9-trimethyl-3-pentyl-6H-dibenzo[b,d]pyran-1-ol], for which, in series [2] (COLO 205, 10 μM), the MFI amounted to 120. Moreover, in series [2] (COLO 205, 20 μM), the MFI was 160. In series [2] (COLO 205, 30 μM), this molecule came in with an MFI of 253. Moreover, the MFI in series [2] (COLO 205, 40 μM) was determined as 253. In series [2], the fold induction at 10 µM amounted to 0.99, the fold induction at 20 µM was 1.32, the fold induction at 30 µM was 2.09 and the fold induction at 40 µM stood at 2.09. In series [1] (Homo sapiens, COLO 205, 48 h), this molecule displayed an EC50 of 25 µM. In series [1] (0-100 μM, 48 hours), the “Fold Induction” value came to 1.8 Fold.

In the case of `CCCCCc1cc(O)c2c(c1)OC(C)(C)[C@@H]1CC=C(C)C[C@@H]21` [Example 383, 6aR,7,10,10aR-tetrahydro-6,6,9-trimethyl-3-pentyl-6H-dibenzo[b,d]pyran-1-ol], the “Fold Induction” value in series [1] (0-100 μM, 48 hours) came out at 4.1 Fold. Further, in series [1] (setting [5]), the EC50 is 27 µM.

Take `CCCc1cc(O)c2c(c1)OC(C)(CCC=C(C)C)C=C2` (stereo not shown) [Example 381, 2-methyl-2-(4-methylpent-3-enyl)-7-propylchromen-5-ol]: the EC50 in series [1] (Homo sapiens, COLO 205, 48 h) came to 32 µM. Besides, in series [1] (0-100 μM, 48 hours), the “Fold Induction” value was 3.3 Fold.

In turn, `C=C(C)[C@@H]1CCC(C)=C[C@H]1c1c(O)cc(CCC)cc1O` [Example 386, 2-[(1R,6R)-3-methyl-6-(1-methylethenyl)-2-cyclohexen-1-yl]-5-propyl-1,3-benzenediol] came in with an EC50 in series [1] (Homo sapiens, COLO 205, 48 h) of 19 µM. Moreover, the “Fold Induction” value in series [1] (0-100 μM, 48 hours) was determined as 5.5 Fold.

B1: Interferon-γ: a natural cytokine known to stimulate MHC class I expression in many mammalian cells (protein, UniProt P01579 24-161, looked up)
Interferon gamma: QDPYVKEAENLKKYFNAGHSDVADNGTLFLGILKNWKEESDRKIMQSQIVSFYFKLFKNFKDDQSIQKSVETIKEDMNVKFFNSNKKKRDDFEKLTNYSVTDLNVQRKAIHELIQVMAELSPAAKTGKRKRSQMLFRG
Turning to B1, the “Fold Induction” value in series [2] (COLO 205, 0.004 ng/mL) was determined as 0.98; in series [2] (COLO 205, 0.040 ng/mL) it was 2.07; in series [2] (COLO 205, 1.000 ng/mL), 3.99.
